One block for each molecule: values may come before it.
Key:
[1] = biological target: T1, PD-L1 in A549-iPDL1 tumors (Homo sapiens, UniProt Q9NZQ7); assay: [64Cu]WL12 PET and biodistribution in A549-iPDL1 and A549 xenografts; format: in vivo; conditions: 72 h of doxycycline treatment
T1 construct: expressed in transfected cells; host or cells: A549 NSCLC cells, lentiviral pINDUCER20, G418-selected, doxycycline-induced; as xenografts for the in vivo unit
Excerpt: To do so, an A549 NSCLC cell line with doxycycline-inducible PD-L1 expression (A549-iPD-L1) was generated. A549 is a Kras G12S lung adenocarcinoma cell line that expresses low PD-L1 at baseline. It has been transduced with PD-L1 in the all-in-one lentivirus pINDUCER20 vector (Meerbrey, et al., 2011), selected with G418, confirmed for PD-L1 induction by flow cytometry (FIG. 37A) and used for in vitro and in vivo studies. Cy5-PD-L1-mAbs binding to doxycycline-treated A549-iPDL1 cells was blocked by WL12 validating the specificity of WL12 (FIG. 37B). […] Accordingly, it is expected that PET will play a key role in quantifying dynamic changes in PD-L1 expression within the standard clinical work flow, providing a novel way to inform therapy decisions.

PD-L1 in hPD-L1 cells = biological target: T2, PD-L1 in hPD-L1 cells (Homo sapiens, UniProt Q9NZQ7); assay: In vitro binding of [64Cu]WL12 to hPD-L1 and CHO cells; format: cell-based
T2 construct: expressed in transfected cells; grown as tumours in NSG mice for the in vivo units
T2 sequence (Q9NZQ7 19-290): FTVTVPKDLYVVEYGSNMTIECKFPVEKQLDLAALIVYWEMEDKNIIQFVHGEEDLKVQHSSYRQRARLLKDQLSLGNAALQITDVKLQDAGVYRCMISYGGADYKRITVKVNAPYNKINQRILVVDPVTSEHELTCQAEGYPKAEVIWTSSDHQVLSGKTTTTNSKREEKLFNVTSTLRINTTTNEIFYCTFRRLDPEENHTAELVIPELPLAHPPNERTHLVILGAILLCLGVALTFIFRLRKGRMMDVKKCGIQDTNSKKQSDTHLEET
Experimental: (§1) 1.4.9. […] After incubation, cells were washed three times with cold PBS prior to counting on an automated gamma counter (1282 Compugamma CS, Pharmacia/LKBNuclear, Inc., Gaithersburg, Md.). […] Mean fluorescence intensity values were correlated with % incubated dose (% ID) uptake. All the cell uptake studies were performed in triplicate for each cell line and repeated three times.

[2] = biological target: T3, PD-L1 in A549-iPDL1 cells (Homo sapiens, UniProt Q9NZQ7); assay: Binding studies in doxycycline-inducible A549-iPDL1 cells; format: cell-based
T3 construct: expressed in transfected cells; host or cells: A549 NSCLC cells, lentiviral pINDUCER20, G418-selected, doxycycline-induced
T3 sequence (Q9NZQ7 19-290): as above
Excerpt: To do so, an A549 NSCLC cell line with doxycycline-inducible PD-L1 expression (A549-iPD-L1) was generated. A549 is a Kras G12S lung adenocarcinoma cell line that expresses low PD-L1 at baseline.

in vivo = assay: in vivo; set-up: species or system mouse; conditions: female, mouse, in vivo, iv, 40 uCi, total radioactivity, radioactivity uptake
Experimental: (§2) 1.4.10. Animal Models: Animal studies were performed according to the protocols approved by the JHU Animal Care and Use Committee (ACUC). Six-to-eight week old, female, non-obese diabetic severe-combined immunodeficient gamma (NSG) mice were obtained from the JHU Immune Compromised Animal Core. Mice were implanted subcutaneously in opposite sides of the upper flanks with 10×10^6 of CHO-PDL1 and CHO cells. […] 1.4.12. […] For the blocking study, mice were co-injected with 2 mg/kg (50 μg) of unmodified peptide with the radiotracer. The percentage of injected dose per gram of tissue (% ID/g) values were calculated based on signal decay correction and normalization to external [^64Cu] standards, which were measured in triplicate. Biodistribution data shown is mean±the standard error of the mean (SEM).

hPD-L1 tumors [3] = biological target: T4, hPD-L1 tumors (Homo sapiens, UniProt Q9NZQ7); assay: in vivo; set-up: species or system mouse
T4 construct: expressed in transfected cells; grown as tumours in NSG mice for the in vivo units
T4 sequence (Q9NZQ7 19-290): as above
Experimental: as §2

PD-L1 in MDAMB231 cells = biological target: T5, PD-L1 in MDAMB231 cells (Homo sapiens, UniProt Q9NZQ7); assay: In vitro binding of [64Cu]WL12 to MDAMB231 and SUM149 cells; format: cell-based; conditions: 1 h incubation
T5 construct: MDAMB231 breast cancer cells, which naturally express PD-L1; endogenous in cells; host or cells: MDAMB231 (ATCC)
T5 sequence (Q9NZQ7 19-290): as above
Experimental: as §1

hPD-L1 tumors [4] = biological target: T4, hPD-L1 tumors; assay: PET-CT imaging of [64Cu]WL12 in mice with hPD-L1 and CHO tumors; format: in vivo, mouse
Experimental: 1.4.10. Animal Models: Animal studies were performed according to the protocols approved by the JHU Animal Care and Use Committee (ACUC). Six-to-eight week old, female, non-obese diabetic severe-combined immunodeficient gamma (NSG) mice were obtained from the JHU Immune Compromised Animal Core. Mice were implanted subcutaneously in opposite sides of the upper flanks with 10×10^6 of CHO-PDL1 and CHO cells. […] 1.4.11. […] Mice were maintained at 1% Isofluorane levels during imaging. PET images were acquired in two bed positions at 10 min/bed in an ARGUS small-animal PET/CT scanner (Sedecal, Madrid, Spain). A CT scan (512 projections) was performed at the end of each PET scan for anatomical co-registration. PET data were reconstructed using the two-dimensional ordered subsets-expectation maximization algorithm (2D-OSEM) and corrected for dead time and radioactive decay. The % ID per cc values were calculated based on a calibration factor obtained from a known radioactive quantity. Final data visualization and image generation was accomplished using Amira® (FEI, Hillsboro, Oreg.).

PD-L1 in MDAMB231 tumors [5] = biological target: T6, PD-L1 in MDAMB231 tumors (Homo sapiens, UniProt Q9NZQ7); assay: Tumor PD-L1 engagement by PD-L1 mAbs measured with [64Cu]WL12, MDAMB231 xenografts; format: in vivo; conditions: AtzMab 20 mg/kg, AveMab 10 mg/kg, DurMab 10 mg/kg, 24 h prior to tracer
T6 construct: MDAMB231 breast cancer cells, which naturally express PD-L1; endogenous in cells; host or cells: MDAMB231 (ATCC); as xenografts in NSG mice for the in vivo units
T6 sequence (Q9NZQ7 19-290): as above

PD-L1 in MDAMB231 tumors [6] = biological target: T6, PD-L1 in MDAMB231 tumors; assay: as above; format: in vivo; conditions: mAb 24 h prior, 120 min after tracer injection, ex vivo
Experimental: To evaluate the effect of dose on tumor PD-L1 occupancy at the tumor, mice bearing MDAMB231 tumors were injected with escalating doses of AtzMab from 0.009 to 24 mg/kg body weight.

[7] = biological target: T7, PD-L1 in HCC827, H226, hPD-L1 and MDAMB231 cells (Homo sapiens, UniProt Q9NZQ7); assay: [64Cu]WL12 binding to PD-L1-positive cells in the presence of 60 nM mAbs; format: cell-based; conditions: 60 nM mAb vs PBS control
T7 construct: Each of which naturally expresses PD-L1; endogenous in cells; host or cells: HCC827, H226, MDAMB231 (endogenous) and CHO-hPD-L1 (stably transfected)
T7 sequence (Q9NZQ7 19-290): as above
Experimental: Non-interacting residues are shown in gray. […] Mean fluorescence intensities were determined by flow cytometry.
HCC827 and H226 non-small cell lung cancer (NSCLC) cells also were tested.

[8] = biological target: T8, PD-L1 in human NSCLC and TNBC xenografts (Homo sapiens, UniProt Q9NZQ7); conditions: in vivo; cited from earlier work
T8 construct: host or cells: MDAMB231, SUM149 (TNBC), H2444, H1155 (NSCLC) xenografts in mice
T8 sequence (Q9NZQ7 19-290): as above

[9] = mouse, in vivo, iv, 40 uCi, 1 h

T1 sequence (Q9NZQ7 19-290): as above

accumulation in A549-iPDL1 tumors higher than in A549 control tumors [1]: 65%
correlation (r) of mean fluorescence intensity with uptake of radioactivity (PD-L1 in hPD-L1 cells; hPD-L1, MDAMB231, SUM149, CHO cells): 0.9977
reduction in bound [64Cu]WL12 (PD-L1 in hPD-L1 cells; hPD-L1 cells, 1 μM blocking dose of WL12): > 95%
increase in bound radioactivity compared to negative control CHO cells (PD-L1 in hPD-L1 cells; hPD-L1 cells, 1 h incubation): 43 fold
uptake of the incubated dose (PD-L1 in hPD-L1 cells; hPD-L1 cells, 1 h incubation): > 50%
increase in radioactivity uptake, doxycycline treated vs. untreated cells ([2]; A549-iPDL1 cells): 5.5 fold
reduction in % ID/g values in hPD-L1 tumors (hPD-L1 tumors [3]; co-injected excess WL12 (50 μg, 2 mg/kg), 2 h): > 75%
change of uptake in control CHO tumors with blocking dose (hPD-L1 tumors [3]; co-injected excess WL12, 2 h): no significant difference
affinity for mouse PD-L1 (hPD-L1 tumors [3]; inferred from low uptake in spleen, thymus, brown fat): very low or no affinity
uptake of radioactivity in MDAMB231 cells compared to SUM149 cells (PD-L1 in MDAMB231 cells): Two-fold higher
uptake in hPD-L1 tumor compared to CHO tumor, PET-CT (hPD-L1 tumors [4]; 24 h after injection): Increased uptake
Molecule: CCCC[C@H]1C(=O)N(C)[C@@H](CCCC)C(=O)N[C@@H](CCCNC(=O)CCC(C(=O)O)N2CCN(CC(=O)O)CCN(CC(=O)O)CCN(CC(=O)O)CC2)C(=O)N[C@H](C(=O)NCC(N)=O)CSCC(=O)N[C@@H](Cc2ccc(O)cc2)C(=O)N(C)[C@@H](C)C(=O)N[C@@H](CC(N)=O)C(=O)N2CCC[C@H]2C(=O)N[C@@H](Cc2c[nH]cn2)C(=O)N[C@@H](CC(C)C)C(=O)N2C[C@H](O)C[C@H]2C(=O)N[C@@H](Cc2c[nH]c3ccccc23)C(=O)N[C@@H](CO)C(=O)N[C@@H](Cc2cn(C)c3ccccc23)C(=O)N1C (single isomer, unassigned) [[^64Cu]WL12, metal not drawn]
tissue uptake at 1 h (in vivo; control CHO tumor): 4 ± 0.6 %ID/g
tissue uptake at 1 h (in vivo; hPD-L1 tumors): 14.9 ± 0.8 %ID/g
tissue uptake at 1 h (in vivo; kidneys): 34.4 ± 3.1 %ID/g
tissue uptake at 1 h (in vivo; liver): 24.2 ± 2.5 %ID/g
tumor-to-blood ratio (hPD-L1 tumors [3]; [9]): 4.7±1.2
tumor-to-muscle ratio (hPD-L1 tumors [3]; [9]): 25.6±1.9
time of increased uptake in hPD-L1 tumors, PET (hPD-L1 tumors [4]; 150 μCi i.v.): as early as 10 min and retained through 24 h post-injection

[64Cu]WL12 uptake in MDAMB231 xenografts (PD-L1 in MDAMB231 tumors [5]): significantly reduced
decrease of [64Cu]WL12 binding to doxycycline-treated A549-iPDL1 cells ([2]; 60 nM mAb): 65%
less uptake of [64Cu]WL12 in tumors vs saline controls (PD-L1 in MDAMB231 tumors [6]): approximately 60%
[64Cu]WL12 binding to PD-L1-positive cells [7]: inhibited
Molecule: DurMab: FDA-approved PD-L1 mAb durvalumab

Molecule: [^111In]AtzMab: 111In-radiolabeled atezolizumab
uptake in PD-L1high H2444 vs PD-L1low H1155 NSCLC xenografts [8]: Increased uptake
uptake in PD-L1high MDAMB231 vs PD-L1low SUM149 TNBC xenografts [8]: Increased uptake
